Assay: compressibility factor (dimensionless); xn = mol fraction of the nth substance listed
Details: Liquid, Burnett expansion method

[N-]=[N+]=O [nitrous oxide] + FC(F)F
Details | compressibility factor
303.25 K, 141.8 kPa, x1 = 0.6613 | 0.9915
303.25 K, 151.7 kPa, x1 = 0.3152 | 0.9906
303.25 K, 160.7 kPa, x1 = 0.2248 | 0.991
303.25 K, 174.2 kPa, x1 = 0.5419 | 0.9896
303.25 K, 182.2 kPa, x1 = 0.4308 | 0.9882
303.25 K, 209.6 kPa, x1 = 0.7758 | 0.9883
303.25 K, 211.4 kPa, x1 = 0.6613 | 0.9879
303.25 K, 225.8 kPa, x1 = 0.3152 | 0.9858
303.25 K, 239.5 kPa, x1 = 0.2248 | 0.9872
303.25 K, 259.3 kPa, x1 = 0.5419 | 0.9847
303.25 K, 271.2 kPa, x1 = 0.4308 | 0.9832
303.25 K, 311.9 kPa, x1 = 0.7758 | 0.983
303.25 K, 314.4 kPa, x1 = 0.6613 | 0.9824
303.25 K, 335.5 kPa, x1 = 0.3152 | 0.9789
303.25 K, 356.1 kPa, x1 = 0.2248 | 0.9814
303.25 K, 385.1 kPa, x1 = 0.5419 | 0.9775
303.25 K, 402.6 kPa, x1 = 0.4308 | 0.9756
303.25 K, 462.7 kPa, x1 = 0.7758 | 0.9749
303.25 K, 466.4 kPa, x1 = 0.6613 | 0.974
303.25 K, 496.7 kPa, x1 = 0.3152 | 0.9688
303.25 K, 528.1 kPa, x1 = 0.2248 | 0.9726
303.25 K, 569.8 kPa, x1 = 0.5419 | 0.9668
303.25 K, 595 kPa, x1 = 0.4308 | 0.9638
303.25 K, 683.7 kPa, x1 = 0.7758 | 0.9628
303.25 K, 688.8 kPa, x1 = 0.6613 | 0.9615
303.25 K, 731.3 kPa, x1 = 0.3152 | 0.9534
303.25 K, 779.4 kPa, x1 = 0.2248 | 0.9596
303.25 K, 838.3 kPa, x1 = 0.5419 | 0.9507
303.25 K, 874.1 kPa, x1 = 0.4308 | 0.9464
303.25 K, 1003.6 kPa, x1 = 0.7758 | 0.9446
303.25 K, 1010.4 kPa, x1 = 0.6613 | 0.9427
303.25 K, 1068.3 kPa, x1 = 0.3152 | 0.9309
303.25 K, 1142.3 kPa, x1 = 0.2248 | 0.94
303.25 K, 1222.8 kPa, x1 = 0.5419 | 0.9269
303.25 K, 1272.3 kPa, x1 = 0.4308 | 0.9208
303.25 K, 1459.1 kPa, x1 = 0.7758 | 0.918
303.25 K, 1467.5 kPa, x1 = 0.6613 | 0.9152
303.25 K, 1541.6 kPa, x1 = 0.3152 | 0.8979
303.25 K, 1657.1 kPa, x1 = 0.2248 | 0.9115
303.25 K, 1760.9 kPa, x1 = 0.5419 | 0.8922
303.25 K, 1825.8 kPa, x1 = 0.4308 | 0.8832
303.25 K, 2090.5 kPa, x1 = 0.7758 | 0.8791
303.25 K, 2099 kPa, x1 = 0.6613 | 0.8749
303.25 K, 2185.1 kPa, x1 = 0.3152 | 0.8507
303.25 K, 2366.6 kPa, x1 = 0.2248 | 0.8701
303.25 K, 2486.5 kPa, x1 = 0.5419 | 0.8421
303.25 K, 2565.1 kPa, x1 = 0.4308 | 0.8294
303.25 K, 2929 kPa, x1 = 0.7758 | 0.8233
303.25 K, 2933.8 kPa, x1 = 0.6613 | 0.8174
303.25 K, 3012.1 kPa, x1 = 0.3152 | 0.7838
303.25 K, 3303.6 kPa, x1 = 0.2248 | 0.8119
303.25 K, 3408.6 kPa, x1 = 0.5419 | 0.7716
303.25 K, 3489.6 kPa, x1 = 0.4308 | 0.7542
303.25 K, 3965.1 kPa, x1 = 0.7758 | 0.7449
323.43 K, 176.4 kPa, x1 = 0.5105 | 0.9908
323.43 K, 262.8 kPa, x1 = 0.5105 | 0.987
323.43 K, 391 kPa, x1 = 0.5105 | 0.9814
323.43 K, 579.9 kPa, x1 = 0.5105 | 0.9729
323.43 K, 856.1 kPa, x1 = 0.5105 | 0.96
323.43 K, 1255 kPa, x1 = 0.5105 | 0.9406
323.43 K, 1820.9 kPa, x1 = 0.5105 | 0.9123
323.43 K, 2601.4 kPa, x1 = 0.5105 | 0.8711
323.43 K, 3632.8 kPa, x1 = 0.5105 | 0.8131
323.44 K, 159.9 kPa, x1 = 0.6428 | 0.9917
323.44 K, 170.7 kPa, x1 = 0.7792 | 0.992
323.44 K, 174 kPa, x1 = 0.358 | 0.9909
323.44 K, 238.4 kPa, x1 = 0.6428 | 0.9886
323.44 K, 254.5 kPa, x1 = 0.7792 | 0.9888
323.44 K, 259.3 kPa, x1 = 0.358 | 0.9869
323.44 K, 354.9 kPa, x1 = 0.6428 | 0.9837
323.44 K, 378.9 kPa, x1 = 0.7792 | 0.9837
323.44 K, 385.6 kPa, x1 = 0.358 | 0.9809
323.44 K, 527.1 kPa, x1 = 0.6428 | 0.9764
323.44 K, 562.3 kPa, x1 = 0.7792 | 0.9759
323.44 K, 571.6 kPa, x1 = 0.358 | 0.972
323.44 K, 779.5 kPa, x1 = 0.6428 | 0.9653
323.44 K, 831.2 kPa, x1 = 0.7792 | 0.9642
323.44 K, 843.2 kPa, x1 = 0.358 | 0.9583
323.44 K, 1145.9 kPa, x1 = 0.6428 | 0.9485
323.44 K, 1221 kPa, x1 = 0.7792 | 0.9467
323.44 K, 1235.2 kPa, x1 = 0.358 | 0.9384
323.44 K, 1669.1 kPa, x1 = 0.6428 | 0.9234
323.44 K, 1777.2 kPa, x1 = 0.7792 | 0.921
323.44 K, 1790.3 kPa, x1 = 0.358 | 0.9091
323.44 K, 2399.2 kPa, x1 = 0.6428 | 0.8872
323.44 K, 2551 kPa, x1 = 0.7792 | 0.8837
323.44 K, 2553.4 kPa, x1 = 0.358 | 0.8666
323.44 K, 3379.9 kPa, x1 = 0.6428 | 0.8354
323.44 K, 3557 kPa, x1 = 0.358 | 0.8069
323.44 K, 3585.4 kPa, x1 = 0.7792 | 0.8302
343.87 K, 201 kPa, x1 = 0.7837 | 0.9917
343.87 K, 299.8 kPa, x1 = 0.7837 | 0.9888
343.87 K, 446.5 kPa, x1 = 0.7837 | 0.9842
343.87 K, 663 kPa, x1 = 0.7837 | 0.9769
343.87 K, 980.8 kPa, x1 = 0.7837 | 0.966
343.87 K, 1442.6 kPa, x1 = 0.7837 | 0.9497
343.87 K, 2103.1 kPa, x1 = 0.7837 | 0.9254
343.87 K, 3026.4 kPa, x1 = 0.7837 | 0.8901
343.87 K, 4273 kPa, x1 = 0.7837 | 0.8401
343.95 K, 79.8 kPa, x1 = 0.6698 | 0.9965
343.95 K, 90.5 kPa, x1 = 0.2403 | 0.991
343.95 K, 92.3 kPa, x1 = 0.4174 | 0.9925
343.95 K, 119.5 kPa, x1 = 0.6698 | 0.9953
343.95 K, 128.4 kPa, x1 = 0.536 | 0.9933
343.95 K, 135.6 kPa, x1 = 0.2403 | 0.991
343.95 K, 138.2 kPa, x1 = 0.4174 | 0.9917
343.95 K, 178.9 kPa, x1 = 0.6698 | 0.9945
343.95 K, 192 kPa, x1 = 0.536 | 0.9915
343.95 K, 202.9 kPa, x1 = 0.2403 | 0.9897
343.95 K, 206.8 kPa, x1 = 0.4174 | 0.9901
343.95 K, 266.9 kPa, x1 = 0.6698 | 0.9901
343.95 K, 287 kPa, x1 = 0.536 | 0.9886
343.95 K, 303.2 kPa, x1 = 0.2403 | 0.9866
343.95 K, 308.9 kPa, x1 = 0.4174 | 0.9871
343.95 K, 398.2 kPa, x1 = 0.6698 | 0.9857
343.95 K, 428 kPa, x1 = 0.536 | 0.9839
343.95 K, 451.8 kPa, x1 = 0.2403 | 0.9812
343.95 K, 460.6 kPa, x1 = 0.4174 | 0.9821
343.95 K, 592.7 kPa, x1 = 0.6698 | 0.9789
343.95 K, 636.6 kPa, x1 = 0.536 | 0.9767
343.95 K, 671.3 kPa, x1 = 0.2403 | 0.9728
343.95 K, 684.7 kPa, x1 = 0.4174 | 0.9741
343.95 K, 879 kPa, x1 = 0.6698 | 0.9688
343.95 K, 943.2 kPa, x1 = 0.536 | 0.9656
343.95 K, 992.7 kPa, x1 = 0.2403 | 0.9599
343.95 K, 1013 kPa, x1 = 0.4174 | 0.9617
343.95 K, 1296.6 kPa, x1 = 0.6698 | 0.9537
343.95 K, 1389 kPa, x1 = 0.536 | 0.9489
343.95 K, 1457.5 kPa, x1 = 0.2403 | 0.9405
343.95 K, 1488.7 kPa, x1 = 0.4174 | 0.9431
343.95 K, 1897.6 kPa, x1 = 0.6698 | 0.9313
343.95 K, 2027.4 kPa, x1 = 0.536 | 0.9241
343.95 K, 2117.9 kPa, x1 = 0.2403 | 0.9119
343.95 K, 2166.3 kPa, x1 = 0.4174 | 0.9157
343.95 K, 2743.8 kPa, x1 = 0.6698 | 0.8986
343.95 K, 2920 kPa, x1 = 0.536 | 0.8882
343.95 K, 3030.8 kPa, x1 = 0.2403 | 0.8708
343.95 K, 3105.8 kPa, x1 = 0.4174 | 0.8761
343.95 K, 3898.2 kPa, x1 = 0.6698 | 0.8519
343.95 K, 4125.5 kPa, x1 = 0.536 | 0.8374
343.95 K, 4242.9 kPa, x1 = 0.2403 | 0.8135
343.95 K, 4359.1 kPa, x1 = 0.4174 | 0.8205
